These are literature values, as cited in patent US8362030B2, “Tricyclic derivatives as inhibitors of poly(ADP-ribose) polymerase (PARP)” (Istituto di Ricerche di Biologia Molecolare P. Angeletti …, priority 2008, dated 2013).

SMILES strings stand for the structures.

The subject of the data set is ischemia and reperfusion of the heart. As to conditions: rabbits.

Take `Oc1cccc2c(O)nccc12` [1,5-dihydroxyisoquinoline]: under “single injection 1 mg/kg”, the “reduction in infarct size” value is listed as 38-48%.

In the case of `NC(=O)c1cccc(N)c1` [3-amino-benzamide], the “reduction in infarct size in the heart” value (single injection 10 mg/kg, one minute before occlusion or before reperfusion) is recorded as 32-42%.
